Laboratory results published in US11725000B2, “Apoptosis inhibitors” (National Institute of Biological Sciences, Beijing, priority 2017, dated 2023).

Test system: U2OS_Bim cells
Experiment: Apoptosis inhibition assay (Bim-induced apoptosis, cell viability by ATP level)
Format: cell-based
Conditions: not given
Method: A chemical library containing 200000 compounds was screened according to the following procedure: U2OS_Bim cells (a cell line in which the BH3-only protein Bim can be inducibly expressed by the addition of Doxycycline to the growth medium)^[2] were plated in 384-well plates with 30 μl medium at a density of 500 cells per well. 16 hrs after plating, test compounds were transferred from stock plates to the assay plates with the cultured cells. Positive control (20 μM zVAD) and negative control (DMSO) were added to every plate. 1 hr after compound treatment, 0.1 ug/mL Doxycyclin (DOX) was added to induce the expression of the Bim protein. After 24 hrs, cell viability was determined by measuring the ATP levels using a Cell Titer-Glo kit (Promega, G7570) according to the manufacturer's instructions. Luminescence was recorded with a PerkinElmer EnSpire Multimode Plate Reader. Compounds that could rescue cell viability to a level above 50% were selected; these compounds were then screened a second time for assurance.
U2OS_Bim or U2OS_tBid cells were plated at a density of 3000 cells per well in 96-well plates. 24 hrs later, cells were treated with experimental compounds, zVAD (positive control) and DMSO (Negative control) for one hour. The cells were then treated with 0.1 μg/mL DOX to trigger apoptosis. 24 hours after the addition of DOX, cell viability was determined by measuring the ATP levels using a Cell Titer-Glo kit. Cell survival rate was calculated.
U2OS_Bim cells (a U2OS stable cell line transfected with a Bim transgene) were cultured in DMEM culture medium (Gibico). On day one, U2OS_Bim cells were plated in 96-well plates at a density of 3000 cells per well. On day two, cells were pretreated with compounds for one hour. Then cells were treated with 0.1 μg/mL doxycycline (DOX) to trigger apoptosis. 24 hours after DOX treatment, cell viability was determined by measuring the ATP levels using the Cell Titer-Glo kit (G7570, Promega), according to the manufacturer's instructions. Luminescence was recorded with a PerkinElmer EnSpire Multimode Plate Reader. Survived cells were normalized to those cells treated with DMSO. zVAD (20 μM) was used as a positive control. Activity data for compounds […] are represented as means f standard deviation of duplicates; activity data for compounds 187-274 are estimated based on preliminary results.

| Compound | EC50 [nM] |
| --- | --- |
| CS(=O)(=O)c1nc(-c2ccc(=O)n(Cc3ccccc3)c2)cc(C(F)(F)F)n1 [Compound 103, 1-Benzyl-5-(2-(methylsulfonyl)-6-(trifluoromethyl)pyrimidin-4-yl)pyridin-2 (1H)-one] | 1000 to 10000 |

Same assay, conditions: U2OS_Bim cells; means of duplicates; numbering of Tables 4a/4b; read-out: EC50

| Compound | EC50 [nM] |
| --- | --- |
| C[S+]([O-])c1nc(-c2ccn(Cc3cccc(Cl)c3)c2)cc(C(F)(F)F)n1 (stereo not shown) [Compound 94, 4-(1-(3-chlorobenzyl)-1H-pyrrol-3-yl)-2-(methylsulfinyl)-6-(trifluoromethyl)pyrimidine] | < 100000 |
| CS(=O)(=O)c1nc(-c2ccn(Cc3ccc(Cl)cc3)c2)cc(C(F)(F)F)n1 [Compound 95, 4-(1-(4-chlorobenzyl)-1H-pyrrol-3-yl)-2-(methylsulfonyl)-6-(trifluoromethyl)pyrimidine] | < 100000 |
| C[S+]([O-])c1nc(-c2ccn(Cc3ccc(Cl)cc3)c2)cc(C(F)(F)F)n1 (stereo not shown) [Compound 96, 4-(1-(4-chlorobenzyl)-1H-pyrrol-3-yl)-2-(methylsulfinyl)-6-(trifluoromethyl)pyrimidine] | < 100000 |
| CS(=O)(=O)c1nc(-c2ccn(Cc3cccc(C#N)c3)c2)cc(C(F)(F)F)n1 [Compound 97, 3-((3-(2-(methylsulfonyl)-6-(trifluoromethyl)pyrimidin-4-yl)-1H-pyrrol-1-yl)methyl)benzonitrile] | < 100000 |
| C[S+]([O-])c1nc(-c2ccn(Cc3cccc(C#N)c3)c2)cc(C(F)(F)F)n1 (stereo not shown) [Compound 98, 3-((3-(2-(methylsulfinyl)-6-(trifluoromethyl)pyrimidin-4-yl)-1H-pyrrol-1-yl)methyl)benzonitrile] | < 100000 |
| CS(=O)(=O)c1nc(-c2ccc(=O)[nH]c2)cc(C(F)(F)F)n1 [Compound 99, 5-(2-(methylsulfonyl)-6-(trifluoromethyl)pyrimidin-4-yl)pyridin-2 (1H)-one] | < 100000 |
| C#CCn1cc(-c2cc(C(F)(F)F)nc([S+](C)[O-])n2)ccc1=O (stereo not shown) [Compound 101, 5-(2-(methylsulfinyl)-6-(trifluoromethyl)pyrimidin-4-yl)-1-(prop-2-yn-1-yl) pyridin-2 (1H)-one] | 1000 to 10000 |
| CS(=O)(=O)c1nc(-c2ccc(=O)n(CCN=[N+]=[N-])c2)cc(C(F)(F)F)n1 [Compound 102, 1-(2-azidoethyl)-5-(2-(methylsulfonyl)-6-(trifluoromethyl)pyrimidin-4-yl) pyridin-2 (1H)-one] | 1000 to 10000 |
| CS(=O)(=O)c1nc(-c2ccc(=O)n(Cc3cccc(O)c3)c2)cc(C(F)(F)F)n1 [Compound 108, 1-(3-hydroxybenzyl)-5-(2-(methylsulfonyl)-6-(trifluoromethyl)pyrimidin-4-yl)pyridin-2 (1H)-one] | 1000 to 10000 |
| CCCOc1cccc(Cn2cc(-c3cc(C(F)(F)F)nc([S+](C)[O-])n3)ccc2=O)c1 (stereo not shown) [Compound 114, 5-(2-(methylsulfinyl)-6-(trifluoromethyl)pyrimidin-4-yl)-1-(3-propoxybenzyl)pyridin-2 (11H)-one] | 1000 to 10000 |
| C#CCOc1cccc(Cn2cc(-c3cc(C(F)(F)F)nc(S(C)(=O)=O)n3)ccc2=O)c1 [Compound 115, 5-(2-(methylsulfonyl)-6-(trifluoromethyl)pyrimidin-4-yl)-1-(3-(prop-2-yn-1-yloxy)benzyl) pyridin-2 (1H)-one] | 1 to 1000 |
| C[S+]([O-])c1nc(-c2ccc(=O)n(Cc3ccc(OC(F)(F)F)cc3)c2)cc(C(F)(F)F)n1 (stereo not shown) [Compound 116, 5-(2-(methylsulfinyl)-6-(trifluoromethyl)pyrimidin-4-yl)-1-(4-(trifluoromethoxy)benzyl)pyridin-2 (1H)-one] | 1000 to 10000 |
| CS(=O)(=O)c1nc(-c2ccc(=O)n(Cc3ccc(OC(F)(F)F)cc3)c2)cc(C(F)(F)F)n1 [Compound 117, 5-(2-(methylsulfonyl)-6-(trifluoromethyl)pyrimidin-4-yl)-1-(4-(trifluoromethoxy)benzyl)pyridin-2 (1H)-one] | 1000 to 20000 |
| CS(=O)(=O)c1nc(-c2ccc(=O)n(Cc3cccc(C#N)c3)c2)cc(C(F)(F)F)n1 [Compound 118, 3-((5-(2-(methylsulfonyl)-6-(trifluoromethyl)pyrimidin-4-yl)-2-oxopyridin-1 (2H)-yl)methyl)benzonitrile] | 1000 to 20000 |
| CS(=O)(=O)c1nc(-c2ccc(=O)n(Cc3ccc(C#N)cc3)c2)cc(C(F)(F)F)n1 [Compound 119, 4-((5-(2-(methylsulfonyl)-6-(trifluoromethyl)pyrimidin-4-yl)-2-oxopyridin-1 (2H)-yl)methyl)benzonitrile] | 1000 to 10000 |
| C#Cc1cccc(Cn2cc(-c3cc(C(F)(F)F)nc(S(C)(=O)=O)n3)ccc2=O)c1 [Compound 120, 1-(3-ethynylbenzyl)-5-(2-(methylsulfonyl)-6-(trifluoromethyl)pyrimidin-4-yl) pyridin-2 (1H)-one] | 1 to 1000 |
| C#Cc1cccc(Cn2cc(-c3cc(C(F)(F)F)nc([S+](C)[O-])n3)ccc2=O)c1 (stereo not shown) [Compound 121, 1-(3-ethynylbenzyl)-5-(2-(methylsulfinyl)-6-(trifluoromethyl)pyrimidin-4-yl)pyridin-2 (1H)-one] | 1 to 1000 |
| C#Cc1ccc(Cn2cc(-c3cc(C(F)(F)F)nc(S(C)(=O)=O)n3)ccc2=O)cc1 [Compound 122, 1-(4-ethynylbenzyl)-5-(2-(methylsulfonyl)-6-(trifluoromethyl)pyrimidin-4-yl)pyridin-2 (1H)-one] | 1 to 1000 |
| CS(=O)(=O)c1nc(-c2ccc(=O)n(Cc3ccc(N=[N+]=[N-])cc3)c2)cc(C(F)(F)F)n1 [Compound 123, 1-(4-azidobenzyl)-5-(2-(methylsulfonyl)-6-(trifluoromethyl)pyrimidin-4-yl)pyridin-2 (1H)-one] | < 100000 |
| CS(=O)(=O)c1nc(-c2ccc(=O)n(Cc3ccc(Cl)cc3F)c2)cc(C(F)(F)F)n1 [Compound 124, 1-(4-chloro-2-fluorobenzyl)-5-(2-(methylsulfonyl)-6-(trifluoromethyl)pyrimidin-4-yl)pyridin-2 (1H)-one] | 1 to 1000 |

Continued, values first:

| EC50 [nM] | Compound |
| --- | --- |
| 1 to 1000 | C#CCn1cc(-c2cc(C(F)(F)F)nc(S(C)(=O)=O)n2)ccc1=O [Compound 100, 5-(2-(methylsulfonyl)-6-(trifluoromethyl)pyrimidin-4-yl)-1-(prop-2-yn-1-yl) pyridin-2 (1H)-one] |
| 1 to 1000 | CS(=O)(=O)c1nc(-c2ccc(=O)n(Cc3ccccc3Cl)c2)cc(C(F)(F)F)n1 [Compound 104, 1-(2-chlorobenzyl)-5-(2-(methylsulfonyl)-6-(trifluoromethyl)pyrimidin-4-yl)pyridin-2 (1H)-one] |
| 1 to 1000 | CS(=O)(=O)c1nc(-c2ccc(=O)n(Cc3cccc(Cl)c3)c2)cc(C(F)(F)F)n1 [Compound 105, 1-(3-chlorobenzyl)-5-(2-(methylsulfonyl)-6-(trifluoromethyl)pyrimidin-4-yl)pyridin-2 (1H)-one] |
| 1 to 1000 | CS(=O)(=O)c1nc(-c2ccc(=O)n(Cc3ccc(Cl)cc3)c2)cc(C(F)(F)F)n1 [Compound 106, 1-(4-chlorobenzyl)-5-(2-(methylsulfonyl)-6-(trifluoromethyl)pyrimidin-4-yl)pyridin-2 (1H)-one] |
| 1 to 1000 | CS(=O)(=O)c1nc(-c2ccc(=O)n(Cc3cccc(Br)c3)c2)cc(C(F)(F)F)n1 [Compound 107, 1-(3-bromobenzyl)-5-(2-(methylsulfonyl)-6-(trifluoromethyl)pyrimidin-4-yl)pyridin-2 (1H)-one] |
| 1 to 1000 | COc1cccc(Cn2cc(-c3cc(C(F)(F)F)nc(S(C)(=O)=O)n3)ccc2=O)c1 [Compound 109, 1-(3-methoxybenzyl)-5-(2-(methylsulfonyl)-6-(trifluoromethyl)pyrimidin-4-yl)pyridin-2 (1H)-one] |
| 1 to 1000 | COc1ccc(Cn2cc(-c3cc(C(F)(F)F)nc(S(C)(=O)=O)n3)ccc2=O)cc1 [Compound 110, 1-(4-Methoxybenzyl)-5-(2-(methylsulfonyl)-6-(trifluoromethyl)pyrimidin-4-yl)pyridin-2 (1H)-one] |
| 1 to 1000 | COc1ccc(Cn2cc(-c3cc(C(F)(F)F)nc([S+](C)[O-])n3)ccc2=O)cc1 (stereo not shown) [Compound 111, 1-(4-Methoxybenzyl)-5-(2-(methylsulfinyl)-6-(trifluoromethyl)pyrimidin-4-yl)pyridin-2 (1H)-one] |
| 1 to 1000 | CCOc1cccc(Cn2cc(-c3cc(C(F)(F)F)nc(S(C)(=O)=O)n3)ccc2=O)c1 [Compound 112, 1-(3-ethoxybenzyl)-5-(2-(methylsulfonyl)-6-(trifluoromethyl)pyrimidin-4-yl)pyridin-2 (1H)-one] |
| 1 to 1000 | CCCOc1cccc(Cn2cc(-c3cc(C(F)(F)F)nc(S(C)(=O)=O)n3)ccc2=O)c1 [Compound 113, 5-(2-(methylsulfonyl)-6-(trifluoromethyl)pyrimidin-4-yl)-1-(3-propoxybenzyl)pyridin-2 (1H)-one] |
